Measurements reported in the supplement of paper PMC11061612.

How the values were obtained:
Assay in all cases: combination Emax (second highest fraction inhibited in the dose matrix, 72 h); higher = more inhibition; extreme values may be limits of the assay
[1] = system: Becker (Low Grade Glioma)
How it was run: (§1)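 Bliss excess equals the observed combination effect minus the expected value EA + EB − EA·EB, where EA and EB are the effects of each agent alone. Combination Emax is the second-highest inhibition within the matrix. Inhibition was scaled from CellTiter-Glo 2.0 luminescence, with 0 set by vehicle wells and 1 by blank wells, after 72 hours of two-drug dosing of cells plated in 1536-well plates.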

[2] = system: FLO-1 (Esophageal Adenocarcinoma)
How it was run: as §1

KYM-1 (Rhabdomyosarcoma) = system: KYM-1 (Rhabdomyosarcoma)
How it was run: as §1

[3] = system: COLO-684 (Endometrial Carcinoma)
How it was run: as §1

[4] = system: SJRH30 (Rhabdomyosarcoma)
How it was run: as §1

[5] = system: NCI-H1623 (Lung Adenocarcinoma)
How it was run: as §1

[6] = system: RPMI-8866 (Chronic Myelogenous Leukemia)
How it was run: as §1

[7] = system: NCI-H1755 (Lung Adenocarcinoma)
How it was run: as §1

[8] = system: EB-3 (Burkitt's Lymphoma)
How it was run: as §1

[9] = system: CML-T1 (Chronic Myelogenous Leukemia)
How it was run: as §1

RT4 (Bladder Carcinoma) = system: RT4 (Bladder Carcinoma)
How it was run: as §1

[10] = system: SW684 (Other Solid Carcinomas)
How it was run: as §1

ES-2 (Ovarian Carcinoma) = system: ES-2 (Ovarian Carcinoma)
How it was run: as §1

[11] = system: BALL-1 (B-Lymphoblastic Leukemia)
How it was run: as §1

[12] = system: SNU-175 (Colorectal Carcinoma)
How it was run: as §1

[13] = system: NCI-H1563 (Lung Adenocarcinoma)
How it was run: as §1

CHL-1 (Melanoma) = system: CHL-1 (Melanoma)
How it was run: as §1

[14] = system: HSC-3 (Oral Cavity Carcinoma)
How it was run: as §1

[15] = system: AN3-CA (Endometrial Carcinoma)
How it was run: as §1

[16] = system: Calu-6 (Non-Small Cell Lung Carcinoma)
How it was run: as §1

| Compound | combination Emax [1] | combination Emax [2] | combination Emax (KYM-1 (Rhabdomyosarcoma)) | combination Emax [3] | combination Emax [4] | combination Emax [5] | combination Emax [6] | combination Emax [7] | combination Emax [8] | combination Emax [9] | combination Emax (RT4 (Bladder Carcinoma)) | combination Emax [10] | combination Emax (ES-2 (Ovarian Carcinoma)) | combination Emax [11] | combination Emax [12] | combination Emax [13] | combination Emax (CHL-1 (Melanoma)) | combination Emax [14] | combination Emax [15] | combination Emax [16] |
| --- | --- | --- | --- | --- | --- | --- | --- | --- | --- | --- | --- | --- | --- | --- | --- | --- | --- | --- | --- | --- |
| CC1(C)CCC(CN2CCN(c3ccc(C(=O)NS(=O)(=O)c4ccc(NCC5CCOCC5)c([N+](=O)[O-])c4)c(Oc4cnc5[nH]ccc5c4)c3)CC2)=C(c2ccc(Cl)cc2)C1 [Venetoclax] + COc1cc(Nc2ncc3c(n2)-c2ccc(Cl)cc2C(c2c(F)cccc2OC)=NC3)ccc1C(=O)O [Alisertib] (first compound max 1 µM, 7x7, partner max 10 µM) | 0.547 | 0.514 | 0.21 | 0.264 | 0.423 | 0.391 | 0.89 | 0.66 | 0.418 | 0.965 | 0.791 | 0.253 | 0.983 | 1 | 0.818 | 0.466 | 0.778 | 0.61 | 0.9 | 0.584 |
| CC1(C)CCC(CN2CCN(c3ccc(C(=O)NS(=O)(=O)c4ccc(NCC5CCOCC5)c([N+](=O)[O-])c4)c(Oc4cnc5[nH]ccc5c4)c3)CC2)=C(c2ccc(Cl)cc2)C1 [Venetoclax] + C[C@@H]1COCCN1C2=NC(=NC(=C2)C3(CC3)[S@](=N)(=O)C)C4=C5C=CNC5=NC=C4 [AZD6738] (first compound max 1 µM, 7x7, partner max 10 µM) | 0.656 | 0.559 | 0.839 | 0.753 | 0.864 | 0.827 | 0.958 | 0.828 | 0.6 | 0.993 | 0.612 | 0.48 | 0.789 | 1 | 0.658 | 0.307 | 0.879 | 0.548 | 0.653 | 0.801 |
| CC1(C)CCC(CN2CCN(c3ccc(C(=O)NS(=O)(=O)c4ccc(NCC5CCOCC5)c([N+](=O)[O-])c4)c(Oc4cnc5[nH]ccc5c4)c3)CC2)=C(c2ccc(Cl)cc2)C1 [Venetoclax] + C[C@@H](Nc1cc(F)cc(F)c1)c1cc(C(=O)N(C)C)cc2c(=O)cc(N3CCOCC3)oc12 [AZD8186] (first compound max 1 µM, 7x7, partner max 3 µM) | 0.418 | 0.543 | 0.162 | 0.529 | 0.0499 | 0.378 | 0.594 | 0.588 | 0.198 | 0.967 | 0.174 | 0.315 | 0.159 | 1 | 0.171 | 0.431 | 0.147 | 0.0933 | 0.457 | 0.125 |
| CC1(C)CCC(CN2CCN(c3ccc(C(=O)NS(=O)(=O)c4ccc(NCC5CCOCC5)c([N+](=O)[O-])c4)c(Oc4cnc5[nH]ccc5c4)c3)CC2)=C(c2ccc(Cl)cc2)C1 [Venetoclax] + Cc1cc2ncnn2cc1Nc1ncc2c(n1)n(C1CCOCC1)c(=O)n2C [AZD7648] (first compound max 1 µM, 7x7, partner max 10 µM) | 0.19 | 0.249 | 0.159 | 0.349 | 0.187 | 0.371 | 0.316 | 0.534 | 0.477 | 0.93 | 0.357 | 0.273 | 0.249 | 1 | 0.131 | 0.391 | 0.215 | 0.207 | 0.411 | 0.275 |
| CC1(C)CCC(CN2CCN(c3ccc(C(=O)NS(=O)(=O)c4ccc(NCC5CCOCC5)c([N+](=O)[O-])c4)c(Oc4cnc5[nH]ccc5c4)c3)CC2)=C(c2ccc(Cl)cc2)C1 [Venetoclax] + Cn1cnc2c(F)c(Nc3ccc(Br)cc3Cl)c(C(=O)NOCCO)cc21 [Selumetinib] (first compound max 1 µM, 7x7, partner max 3 µM) | 0.215 | 0.319 | 0.124 | 0.0813 | 0.1 | 0.256 | 0.293 | 0.636 | 0.154 | 0.957 | 0.304 | 0.191 | 0.366 | 1 | 0.313 | 0.242 | 0.0922 | 0.365 | 0.204 | 0.431 |
